Several values for one entry are separate records, joined by “and”; a condition that tells them apart may be missing. Equal entries are not always repeated.
Assay: solvent given as SMILES

SMILES: Cc1ccccc1-c1c2ccc(=[N+]3CCOCC3)cc-2oc2cc(N3CCCCC3)ccc12
- emission maximum (in CCO): 582 nm
- emission maximum (in ClCCl): 579 nm

SMILES: N#Cc1c(N2CCCCC2)cc(-c2ccc3ccc4cccc5ccc2c3c45)c2c1-c1ccccc1C2=O
- emission maximum (in C1CCOC1): 528 nm

SMILES: CC(C)(C)c1ccc2c(c1)sc1[n+]2[B-](F)(F)n2c(c3cccc4cccc2c43)=N1
- emission maximum (in C1CCOC1): 504 nm
- emission maximum (in CC#N): 502 nm
- emission maximum (in CCCCCC): 504 nm
- emission maximum (in Cc1ccccc1): 506 nm
- emission maximum (in ClCCl): 534 nm

SMILES: CC[NH+](CC)c1ccc(-c2nc3c4ccccc4n(C)c3nc2-c2ccc(B(c3c(C)cc(C)cc3C)c3c(C)cc(C)cc3C)cc2)cc1
- emission maximum (in C1CCOC1): 451.19 nm

SMILES: Cc1cc(C)c(B(c2ccc(-c3ccc(-c4nc5c6ccccc6c6ccccc6c5[nH]4)cc3)cc2)c2c(C)cc(C)cc2C)c(C)c1
- emission maximum (in C1CCOC1): 474 nm
- emission maximum (in CC(C)=O): 493 nm
- emission maximum (in CS(C)=O): 520 nm
- emission maximum (in Cc1ccccc1): 435 nm
- emission maximum (in ClCCl): 469 nm

SMILES: N#Cc1c(-n2c3ccccc3c3cc(Br)ccc32)c(-n2c3ccccc3c3cc(Br)ccc32)c(C#N)c(-n2c3ccccc3c3cc(Br)ccc32)c1-n1c2ccccc2c2cc(Br)ccc21
- emission maximum (in Cc1ccccc1): 543 nm

SMILES: CCN(CC)c1ccc2c(-c3ccc(S(=O)(=O)[O-])cc3S(=O)(=O)[O-])c3ccc(=[N+](CC)CC)cc-3oc2c1
- emission maximum (in CC#N): 573 nm
- emission maximum (in CCO): 578 nm
- emission maximum (in CN(C)C=O): 574 nm
- emission maximum (in O): 588 nm

SMILES: N#Cc1ccc(-n2c(-c3ccc(-c4ccc(N(c5ccccc5)c5ccccc5)cc4)s3)nc3c4ccccc4c4ccccc4c32)c2ccccc12
- emission maximum (in ClCCl): 408 nm

SMILES: CCCCCOc1cc2oc(=O)c3c4ccc(C#N)cc4c4ccc5cccc6c(c1)c2c3c4c56
- emission maximum (in C1CCOC1): 444 nm

SMILES: CCC(C)(C)c1ccc2c(c1)C(CC)(CC)c1cc(-c3ccc4c(c3)C(CC)(CC)c3cc(C(C)(C)CC)ccc3-4)ccc1-2
- emission maximum (in C1CCCCC1): 371 nm

SMILES: CCOC(=O)CSc1nc2c(c(C#N)c1C#N)CCCC2
- emission maximum (in c1ccccc1): 407 nm

SMILES: CC(C)CN1C(=O)/C(=C/c2ccc([N+](=O)[O-])cc2)C=C1c1ccccc1
- emission maximum (in C1COCCO1): 601 nm

SMILES: COc1ccc(-c2cnc3nn4ccccc4c3c2)cc1
- emission maximum (in C1CCOC1): 423 nm

SMILES: O=C1c2ccccc2-c2nc3c4ccccc4c4ccccc4c3n21
- emission maximum (in ClCCl): 616 nm

SMILES: CC(C)(C)c1ccc(-c2c(-c3ccc(N(c4ccccc4)c4ccccc4)cc3)cc(-c3ccc(N(c4ccccc4)c4ccccc4)cc3)c(-c3ccc(C(C)(C)C)cc3)c2-c2ccc(C(C)(C)C)cc2)cc1
- emission maximum (in C1CCOC1): 406 nm

SMILES: CCN(CC)c1ccc(/C=N/c2ccccc2/N=C/c2ccc(N(CC)CC)cc2O)c(O)c1
- emission maximum (in CC#N): 502 nm
- emission maximum (in CN(C)C=O): 573 nm
- emission maximum (in ClCCl): 535 nm

SMILES: c1ccc2c(c1)ccc1ccc3ccc4ccccc4c3c12
- emission maximum (in ClC(Cl)Cl): 424 nm

SMILES: N#CC1=C(N)n2c(=O)c3ccccc3c(=O)n2C1c1cccs1 (centres undefined)
- emission maximum (in CS(C)=O): 446 nm

SMILES: COCCOCCOc1cc(C=O)c(OCCOCCOC)cc1C=O
- emission maximum (in CC(C)(C)O): 478 nm
- emission maximum (in CC(C)CO): 481 nm
- emission maximum (in CC(C)O): 481 nm
- emission maximum (in CCCCO): 467 nm
- emission maximum (in CCCO): 464 nm
- emission maximum (in CCO): 464 nm
- emission maximum (in CN(C)C=O): 466 nm
- emission maximum (in CNC=O): 450 nm
- emission maximum (in CO): 466 nm
- emission maximum (in NC=O): 458 nm
- emission maximum (in O): 496 nm

SMILES: O=c1oc2ccccc2c2c1c(=O)oc1ccc3ccc(O)cc3c12
- emission maximum (in CS(C)=O): 506 nm
- emission maximum (in ClCCl): 517 nm

SMILES: CC(C)(C)/C=C1\C=C(c2ccccc2)C=C1c1ccccc1
- emission maximum (in C1CCOC1): 460 nm

SMILES: COc1ccc(C2=C(Br)C(c3ccccc3)=[N+]3C2=Nc2c(-c4ccc(OC)cc4)c(Br)c(-c4ccccc4)n2[B-]3(F)F)cc1
- emission maximum (in Cc1ccccc1): 691 nm

SMILES: N#Cc1ccc2cc(C#N)c3ccc4ccccc4c3c2c1
- emission maximum (in ClC(Cl)Cl): 420 nm

SMILES: COc1ccc(-c2cn3ccc[n+]3[n-]2)cc1
- emission maximum (in ClCCl): 413 nm

SMILES: CCN1c2ccc(/C=N/Nc3ccccn3)cc2Sc2cc(/C=N/Nc3ccccn3)ccc21
- emission maximum (in C1CCOC1): 495 nm
- emission maximum (in CS(C)=O): 507 nm
- emission maximum (in Cc1ccccc1): 491 nm
- emission maximum (in ClCCl): 498 nm

SMILES: c1ccc(Nc2nc(Nc3ccccc3)nc(Nc3cc4ccc5cccc6ccc(c3)c4c56)n2)cc1
- emission maximum (in CC#N): 398 nm
- emission maximum (in CCCCOCCCC): 397 nm
- emission maximum (in CO): 399 nm

SMILES: Fc1ccc2c(c1)sc1nc(-c3ccccc3)sc12
- emission maximum (in CS(C)=O): 407 nm

SMILES: CN(C)CCCN1c2ccccc2Sc2ccccc21
- emission maximum (in CC#N): 444 nm
- emission maximum (in CO): 444 nm
- emission maximum (in O): 452 nm

SMILES: CC[N+]1(CC)CN2C(=N1)C(C(=O)O)=Cc1ccc(C)cc12
- emission maximum (in O): 457 nm

SMILES: O=c1c(Nc2ccccc2)c([O-])c1=[NH+]c1ccccc1
- emission maximum (in C1CCOC1): 477 nm
- emission maximum (in CC#N): 496 nm
- emission maximum (in CC(C)=O): 490 nm
- emission maximum (in CCO): 492 nm
- emission maximum (in CCOCC): 484 nm
- emission maximum (in CN1CCCC1=O): 495 nm
- emission maximum (in CN(C)C=O): 502 nm
- emission maximum (in CO): 498 nm
- emission maximum (in CS(C)=O): 504 nm
- emission maximum (in O): 504 nm

SMILES: Nc1ccc2c(C(F)(F)F)cc(=O)oc2c1
- emission maximum (in C1CCC2CCCCC2C1): 404 nm
- emission maximum (in C1CCCCC1): 401 nm
- emission maximum (in C1COCCO1): 442 nm
- emission maximum (in CC1CCCCC1): 401 nm
- emission maximum (in CC#N): 465 nm and 461 nm
- emission maximum (in CC(C)=O): 466 nm
- emission maximum (in CC(C)O): 481 nm
- emission maximum (in CCC(C)CC): 400 nm
- emission maximum (in CCCC(C)C): 399 nm
- emission maximum (in CCCCCC): 401 nm
- emission maximum (in CCCCCCCCO): 480 nm
- emission maximum (in CCCCCCO): 481 nm
- emission maximum (in CCCCO): 484 nm
- emission maximum (in CCO): 485 nm
- emission maximum (in CCOC(C)=O): 456 nm
- emission maximum (in CN(C)C=O): 480 nm
- emission maximum (in CO): 487 nm
- emission maximum (in CS(C)=O): 487 nm

SMILES: CCn1c2ccccc2c2cc(-c3cc(-c4ccc5c(c4)c4ccccc4n5CC)nc(C#N)n3)ccc21
- emission maximum (in C1CCOC1): 427 nm
- emission maximum (in CCOC(C)=O): 422 nm
- emission maximum (in CN(C)C=O): 455 nm
- emission maximum (in Cc1ccccc1): 404 nm
- emission maximum (in ClCCl): 435 nm

SMILES: C[Si](C)(C)c1sc([Si](C)(C)C)c2c1sc1c2sc2sc3sc4c(sc5c([Si](C)(C)C)sc([Si](C)(C)C)c54)c3c21
- emission maximum (in ClC(Cl)Cl): 360 nm

SMILES: N#Cc1cc(-c2ccc(F)cc2)cnc1O
- emission maximum (in C1COCCO1): 422 nm
- emission maximum (in CC1CCCCC1): 425 nm
- emission maximum (in CC#N): 423 nm
- emission maximum (in CC(C)O): 424 nm
- emission maximum (in CCO): 425 nm
- emission maximum (in CO): 425 nm
- emission maximum (in CS(C)=O): 427 nm
- emission maximum (in ClC(Cl)(Cl)Cl): 429 nm
- emission maximum (in O): 425 nm

SMILES: O=P1(c2ccccc2)c2ccc(N3c4ccccc4Oc4ccccc43)cc2-c2cc(N3c4ccccc4Oc4ccccc43)ccc21
- emission maximum (in Cc1ccccc1): 535 nm
- emission maximum (in c1ccc2c(c1)c1ccccc1n2-c1ccc(-c2ccc(-n3c4ccccc4c4ccccc43)cc2)cc1): 551 nm

SMILES: Cc1ccc(/C(C#N)=C/c2cc(/C=C(\C#N)c3ccc(C)cc3)c(-c3ccc(N(c4ccccc4)c4ccccc4)cc3)cc2-c2ccc(N(c3ccccc3)c3ccccc3)cc2)cc1
- emission maximum (in C1CCCCC1): 453 nm
- emission maximum (in C1CCOC1): 538 nm
- emission maximum (in CCCCCC): 453 nm
- emission maximum (in CCOC(C)=O): 533 nm
- emission maximum (in Cc1ccccc1): 480 nm
- emission maximum (in ClC(Cl)Cl): 517 nm
- emission maximum (in ClCCl): 552 nm

SMILES: CCCCCCCCOc1cc(/C=C/c2ccncc2)c(OCCCCCCCC)cc1/C=C/c1ccncc1
- emission maximum (in ClCCl): 470 nm

— the Deep4Chem optical property database
